Experimental findings from patent publication US9115137B2, “2,3,4,5-tetrahydro-1H-pyrido[4,3-B]indole compounds and methods of use thereof” (priority 2008, dated 2015) are described below.

Experiment [1] has as its target T1, human recombinant serotonin (5-Hydroxytryptamine) 5-HT6 receptor (Homo sapiens, UniProt P50406).
T1 construct: expressed in transfected cells; host or cells: human HeLa cells
Put plainly: Serotonin 5-HT6 radioligand binding ([3H]LSD). As to conditions: compound at 1 μM; HeLa cells; read-out: Serotonin (1 μM) 5-HT6, percent inhibition of specific binding. The protocol: To evaluate in radioligand binding assays the activity of compounds of the invention, human recombinant serotonin (5-Hydroxytryptamine) 5-HT6 receptor expressed in human HeLa cells (Monsma, F. J. Jr. et al., Mol. Pharmacol. 43:320, 1993) in a modified Tris-HCl buffer (50 mM Tris-HCl, pH 7.4, 150 mM NaCl, 2 mM Ascorbic Acid, 0.001% BSA) was used. Compounds of the invention were incubated with 1.5 nM [3H]Lysergic acid diethylamide (LSD) for 120 minutes at 37° C. Non-specific binding was estimated in the presence of 5 μM Serotonin (5-HT). Receptor proteins were filtered and washed, the filters were then counted to determine [3H]LSD specifically bound. Compounds were screened at 1 μM or lower, using 1% DMSO as vehicle. Biochemical assay results are presented as the percent inhibition of specific binding in Table 7.

In experiment [2] the target is T2, human recombinant histamine H1 receptor (Homo sapiens, UniProt P35367).
T2 construct: expressed in transfected cells; host or cells: CHO cells
T2 sequence (P35367 whole entry): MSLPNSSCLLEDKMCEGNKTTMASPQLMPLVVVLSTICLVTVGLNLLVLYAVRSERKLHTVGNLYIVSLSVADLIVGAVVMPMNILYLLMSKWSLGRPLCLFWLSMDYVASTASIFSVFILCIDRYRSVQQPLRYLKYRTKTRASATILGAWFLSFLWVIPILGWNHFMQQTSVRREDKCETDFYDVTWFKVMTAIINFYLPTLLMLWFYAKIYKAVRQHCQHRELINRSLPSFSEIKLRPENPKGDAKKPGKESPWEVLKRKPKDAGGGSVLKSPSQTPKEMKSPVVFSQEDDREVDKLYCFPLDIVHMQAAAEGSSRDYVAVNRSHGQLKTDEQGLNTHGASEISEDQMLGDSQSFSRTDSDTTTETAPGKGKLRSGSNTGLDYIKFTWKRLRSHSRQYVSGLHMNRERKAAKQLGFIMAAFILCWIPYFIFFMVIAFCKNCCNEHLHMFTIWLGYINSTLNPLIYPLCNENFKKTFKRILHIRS
In words: Histamine H1 radioligand binding ([3H]Pyrilamine). As to conditions: compound at 1 μM; CHO cells; read-out: Histamine Binding (1 μM) H1, percent inhibition of specific binding. The protocol:
To evaluate in radioligand binding assays the activity of compounds of the invention, human recombinant histamine H1 receptor expressed in Chinese hamster ovary (CHO) cells (De Backer, M. D. et al., Biochem. Biophys. Res. Comm. 197(3):1601, 1993) in a modified Tris-HCl buffer (50 mM Tris-HCl, pH 7.4, 2 mM MgCl2, 100 mM NaCl, 250 mM Sucrose) was used. Compounds of the invention were incubated with 1.2 nM [^3H]Pyrilamine for 180 minutes at 25° C. Non-specific binding was estimated in the presence of 1 μM pyrilamine. Receptor proteins were filtered and washed, the filters were then counted to determine [^3H]Pyrilamine specifically bound. Compounds were screened at 1 μM, using 1% DMSO as vehicle. Biochemical assay results are presented as the percent inhibition of specific binding in Table 5.

For experiment [3], the target named is T3, human recombinant serotonin (5-Hydroxytryptamine) 5-HT2C receptor (Homo sapiens, UniProt P28335).
T3 construct: expressed in transfected cells; host or cells: CHO-K1 cells
T3 sequence (P28335 33-458): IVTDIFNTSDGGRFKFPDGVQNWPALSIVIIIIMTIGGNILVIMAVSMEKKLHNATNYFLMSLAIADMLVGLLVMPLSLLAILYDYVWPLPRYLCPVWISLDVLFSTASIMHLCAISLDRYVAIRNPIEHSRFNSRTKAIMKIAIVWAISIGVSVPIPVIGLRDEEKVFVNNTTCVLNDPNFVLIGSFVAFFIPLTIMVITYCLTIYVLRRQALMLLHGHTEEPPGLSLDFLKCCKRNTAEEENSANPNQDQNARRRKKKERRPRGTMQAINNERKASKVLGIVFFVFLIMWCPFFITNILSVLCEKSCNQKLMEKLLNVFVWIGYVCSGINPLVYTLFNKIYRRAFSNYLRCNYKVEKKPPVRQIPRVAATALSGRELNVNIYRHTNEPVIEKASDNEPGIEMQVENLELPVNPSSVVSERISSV
Put plainly: Serotonin 5-HT2C radioligand binding ([3H]Mesulergine). As to conditions: compound at 1 μM; CHO-K1 cells; read-out: Serotonin (1 μM) 5-HT2C, percent inhibition of specific binding. Here is the method: To evaluate in radioligand binding assays the activity of compounds of the invention, human recombinant serotonin (5-Hydroxytryptamine) 5-HT2C receptor expressed in Chinese hamster ovary (CHO-K1) cells (Wolf, W. A. and Schutz, J. S., J. Neurochem. 69:1449, 1997) in a modified Tris-HCl buffer (50 mM Tris-HCl, pH 7.4, 0.1% Ascorbic Acid, 10 μM Pargyline) was used. Compounds of the invention were incubated with 1 nM [^3H]Mesulergine for 60 minutes at 25° C. Non-specific binding was estimated in the presence of 1 μM Mianserin. Receptor proteins were filtered and washed, the filters were then counted to determine [^3H]Mesulergine specifically bound. Compounds were screened at 1 μM or lower, using 1% DMSO as vehicle. Biochemical assay results are presented as the percent inhibition of specific binding in Table 7.

The target in experiment [4] is T4, human recombinant dopamine D2L receptor (Homo sapiens, UniProt P14416).
T4 construct: expressed in transfected cells; host or cells: CHO cells
T4 sequence (P14416 whole entry): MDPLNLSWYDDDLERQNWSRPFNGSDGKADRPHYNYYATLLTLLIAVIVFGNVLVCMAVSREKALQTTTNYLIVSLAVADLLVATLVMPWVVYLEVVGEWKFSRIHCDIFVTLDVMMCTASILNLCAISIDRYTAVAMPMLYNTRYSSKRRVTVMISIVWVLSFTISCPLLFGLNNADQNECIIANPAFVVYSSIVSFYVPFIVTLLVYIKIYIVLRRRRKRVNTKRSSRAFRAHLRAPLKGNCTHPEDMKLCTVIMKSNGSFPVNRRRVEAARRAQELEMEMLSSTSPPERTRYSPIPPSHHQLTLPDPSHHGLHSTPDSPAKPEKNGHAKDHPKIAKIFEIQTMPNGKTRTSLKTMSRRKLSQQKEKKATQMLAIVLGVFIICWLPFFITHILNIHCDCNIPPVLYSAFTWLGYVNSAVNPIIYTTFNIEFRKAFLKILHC
In words: Dopamine D2L radioligand binding ([3H]Spiperone). As to conditions: compound at 1 μM; CHO cells; read-out: Dopamine (1 μM) D2L, percent inhibition of specific binding. Here is the method:
To evaluate in radioligand binding assays the activity of compounds of the invention, human recombinant dopamine D2L receptor expressed in Chinese hamster ovary (CHO) cells (Grandy, D. K. et al. Proc. Natl. Acad. Sci. USA. 86:9762, 1989; Hayes, G. et al., Mol. Endocrinol. 6:920, 1992) in a modified Tris-HCl buffer (50 mM Tris-HCl, pH 7.4, 1.4 mM Ascorbic Acid, 0.001% BSA, 150 mM NaCl) was used. Compounds of the invention were incubated with 0.16 nM [^3H]Spiperone for 120 minutes at 25° C. Non-specific binding was estimated in the presence of 10 μM Haloperidol. Receptor proteins were filtered and washed, the filters were then counted to determine [^3H]Spiperone specifically bound. Compounds were screened at 1 μM or lower, using 1% DMSO as vehicle. Biochemical assay results are presented as the percent inhibition of specific binding in Table 6.

T1 sequence (P50406 whole entry): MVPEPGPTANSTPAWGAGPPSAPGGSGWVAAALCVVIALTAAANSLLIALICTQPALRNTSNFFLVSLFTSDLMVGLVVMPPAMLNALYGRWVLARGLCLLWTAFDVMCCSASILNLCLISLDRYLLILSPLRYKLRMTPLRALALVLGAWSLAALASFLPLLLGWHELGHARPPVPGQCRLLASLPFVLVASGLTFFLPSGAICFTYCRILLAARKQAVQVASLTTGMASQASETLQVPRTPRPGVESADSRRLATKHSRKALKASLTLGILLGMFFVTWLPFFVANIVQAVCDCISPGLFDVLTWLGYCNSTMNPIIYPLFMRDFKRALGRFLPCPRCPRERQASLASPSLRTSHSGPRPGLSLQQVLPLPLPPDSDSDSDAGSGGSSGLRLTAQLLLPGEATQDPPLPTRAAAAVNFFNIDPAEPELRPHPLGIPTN

What is called inhibition is the relative decrease from the control value, in per cent. Consider `CCOC(=O)CCn1c2c(c3cc(C)ccc31)CN(C)CC2` [CD1, ethyl 3-(1,2,3,4-tetrahydro-2,8-dimethylpyrido[4,3-b]indol-5-yl)propanoate], for which the inhibition at 1 µM in experiment [1] was 78%; in experiment [2] it was 101%; in experiment [3], 93%.
For `CCOC(=O)CCn1c2c(c3cc(Cl)ccc31)CN(C)CC2` [CD17, ethyl 3-(8-chloro-1,2,3,4-tetrahydro-2-methylpyrido[4,3-b]indol-5-yl)propanoate], the inhibition at 1 µM is 101% in experiment [1], 100% in experiment [2], 96% in experiment [3] and 22% in experiment [4].
Turning to `CN1CCc2c(c3cc(Cl)ccc3n2CC(=O)O)C1` [CD46, 2-(8-chloro-1,2,3,4-tetrahydro-2-methylpyrido[4,3-b]indol-5-yl)acetic acid], the inhibition at 1 µM in experiment [1] turned out to be 39%; in experiment [2], 69%; in experiment [3], 30%; in experiment [4] it was 3%.
In the case of `Cc1ccc2c(c1)c1c(n2CCC(=O)O)CCN(C)C1` [CD47, 3-(1,2,3,4-tetrahydro-2,8-dimethylpyrido[4,3-b]indol-5-yl)propanoic acid], the inhibition at 1 µM in experiment [1] came to 11%; in experiment [2] it was 25%; in experiment [3] it was 25%; in experiment [4], 4%.
Take `CN1CCc2c(c3cc(Cl)ccc3n2CCC(=O)O)C1` [CD55, 3-(8-chloro-1,2,3,4-tetrahydro-2-methylpyrido[4,3-b]indol-5-yl)propanoic acid]: the inhibition at 1 µM in experiment [1] was -3%; in experiment [2], 22%; in experiment [3], 11%; in experiment [4], 3%.
Taken in the same sequence, the figures for `CCOC(=O)Cn1c2c(c3cc(C)ccc31)CN(C)CC2` [CD57, ethyl 2-(1,2,3,4-tetrahydro-2,8-dimethylpyrido[4,3-b]indol-5-yl)acetate] were 67%, 100%, 96% and 12%.
With `Cc1ccc2c(c1)c1c(n2CC(=O)O)CCN(C)C1` [CD58, 2-(1,2,3,4-tetrahydro-2,8-dimethylpyrido[4,3-b]indol-5-yl)acetic acid], the inhibition at 1 µM in experiment [1] was -5%; in experiment [2] it was 5%; in experiment [3], -19%; in experiment [4], 2%.
On to `Cc1ccc2c(c1)c1c(n2CC#N)CCN(C)C1` [CD61, 2-(1,2,3,4-tetrahydro-2,8-dimethylpyrido[4,3-b]indol-5-yl)acetonitrile], for which the results for the inhibition at 1 µM in experiment [1], in experiment [2] and in experiment [3] were 68%, 98% and 73%, respectively.
Consider `Cc1ccc2c(c1)c1c(n2CCN)CCN(C)C1` [CD62, 2-(1,2,3,4-tetrahydro-2,8-dimethylpyrido[4,3-b]indol-5-yl)ethanamine], for which the inhibition at 1 µM in experiment [1] was determined as 12%; in experiment [2] it was 44%; in experiment [3] it was 28%; in experiment [4] it was 26%.
Turning to `C#CCn1c2c(c3cc(C)ccc31)CN(C)CC2` [CD73, 2,8-dimethyl-5-(prop-2-ynyl)-2,3,4,5-tetrahydro-1H-pyrido[4,3-b]indole], the results for the inhibition at 1 µM in experiment [1], in experiment [2] and in experiment [3] were 83%, 96% and 92%, respectively.
Take `CN1CCc2c(c3cc(Cl)ccc3n2CCCO)C1` [CD87, 3-(8-chloro-2-methyl-3,4-dihydro-1H-pyrido[4,3-b]indol-5(2H)-yl)propan-1-ol]: the inhibition at 1 µM in experiment [1] was determined as 35%; in experiment [2] it was 97%; in experiment [3], 79%; in experiment [4] it was 10%.
On to `CNC(=O)CCn1c2c(c3cc(C)ccc31)CN(C)CC2` [Compound 1, 3-(1,2,3,4-tetrahydro-2,8-dimethylpyrido[4,3-b]indol-5-yl)-N-methylpropanamide], for which the inhibition at 1 µM in experiment [1] came to 8%; in experiment [2], 34%; in experiment [3], 20%.
On to `CCNC(=O)CCn1c2c(c3cc(C)ccc31)CN(C)CC2` [Compound 2, N-ethyl-3-(1,2,3,4-tetrahydro-2,8-dimethylpyrido[4,3-b]indol-5-yl)propanamide], for which the values for the inhibition at 1 µM in experiment [1], in experiment [2] and in experiment [3] were 19%, 52% and -5%, respectively.
Taken in the same sequence, the figures for `Cc1ccc2c(c1)c1c(n2CCC(=O)NC2CCCCC2)CCN(C)C1` [Compound 3, N-cyclohexyl-3-(1,2,3,4-tetrahydro-2,8-dimethylpyrido[4,3-b]indol-5-yl)propanamide] were 19%, 2% and 29%.
In the same order, the values of `Cc1ccc2c(c1)c1c(n2CCC(=O)NC2CCCC2)CCN(C)C1` [Compound 4, N-cyclopentyl-3-(1,2,3,4-tetrahydro-2,8-dimethylpyrido[4,3-b]indol-5-yl)propanamide] are 28%, 60% and 36%.
On to `CCOC(=O)CCCn1c2c(c3cc(C)ccc31)CN(C)CC2` [Compound 5, ethyl 4-(1,2,3,4-tetrahydro-2,8-dimethylpyrido[4,3-b]indol-5-yl)butanoate], for which the figures for the inhibition at 1 µM in experiment [1], in experiment [2] and in experiment [3] were 88%, 96% and 96%, respectively.
In the case of `CCNC(=O)CCCn1c2c(c3cc(C)ccc31)CN(C)CC2` [Compound 6, N-ethyl-4-(1,2,3,4-tetrahydro-2,8-dimethylpyrido[4,3-b]indol-5-yl)butanamide], the inhibition at 1 µM in experiment [1] stood at 23%; in experiment [2] it was 46%; in experiment [3], 45%.
Taken in the same sequence, the figures for `Cc1ccc2c(c1)c1c(n2CCNC(=O)OCC(Cl)(Cl)Cl)CCN(C)C1` [Compound 8, 2,2,2-trichloroethyl 2-(1,2,3,4-tetrahydro-2,8-dimethylpyrido[4,3-b]indol-5-yl)ethylcarbamate] were 83%, 101% and 99%.
On to `Cc1ccc2c(c1)c1c(n2CCNC(=O)C2CCCNC2)CCN(C)C1` (centres unmarked) [Compound 9, N-(2-(1,2,3,4-tetrahydro-2,8-dimethylpyrido[4,3-b]indol-5-yl)ethyl)piperidine-3-carboxamide], for which the inhibition at 1 µM in experiment [1] was -5%; in experiment [3], 29%; in experiment [4], 2%.
